A short description of series [1]: Stability in rat whole blood, red blood cells and plasma. The conditions noted are these: 0.5 mM, 0-120 min. Type of series: in vitro ADME. The method, then:
(§1) Stability of Test Articles at Different pH Values. 10 mM stock solutions of COMPOUND A were prepared in DMSO. From this stock solution, a single concentration in a 10 μL aliquot was added to three fluid matrices: SGF at pH 2.0 (gastric), SIF at pH 6.0 (upper intestine), and PBS at 7.4 (systemic). The final volume was 1 mL (0.1 mM). The preparations were then incubated at 37° C. and samples were collected at 0, 15, 30, 60, and 120 min for analysis of parent material by LC/MS/MS. The collected sample was quenched in acetonitrile/0.1% formic acid mixture. Red Blood Cell (RBC): Human and rat blood were centrifuged to separate out red blood cells at […] for 15 min. The upper plasma level was aspirated with a micropipette and placed in a bleach solution for disposal. The RBC pellet was resuspended in sterile isotonic saline. The pellet was gently resuspended by rocking the tube. […]
(§2) Stability in Human and Rat Red Blood cells and Hemolysis. […] After centrifugation, 70 μL of supernatant (without disturbing the pellet) was transferred to a clean and clear polystyrene flat bottomed 96-well plate and the absorbance of the sample at a single wavelength was measured using a Bio Tech Synergy Hl Plate Reader at a wavelength of 410 nm. […] Stability was measured by measuring loss of parent compound using LC/MS/MS.

For the next series, the system named is human red blood cells. The series can be described thus: Hemolysis in human blood. Type of series: cell-based. The method, then: as §1, §2

Data on one molecule can be found in US20240343699A1, “DERIVATIVES OF SUBSTITUTED MORPHOLINES AND USES THEREOF” (Supernus Pharmaceuticals, Inc., priority 2023, published 2024).

Molecules are shown by their SMILES.

For `CCOc1ccccc1OC[C@@H]1CN(C(=O)OC(C)OC(=O)[C@@H](N)C(C)C)CCO1` (stereo partly drawn) [COMPOUND A], the “stability in rat red blood cells, plasma and whole blood” value in series [1] is given as “time-dependent decrease in the amount of parent compound present”. Moreover, the “hemolysis (% RBC lysis)” value with human red blood cells (human blood, 25, 50, 100 μM, 1 hr) was “no detectable hemolysis”. In the series on human red blood cells (human blood, 60 min exposure), the “EC50 (% RBC lysis)” value was “outside the concentration range tested”.
